Target: T1, GR (Homo sapiens, UniProt P04150)
T1 construct: host or cells: HeLa
T1 sequence (P04150 1-777): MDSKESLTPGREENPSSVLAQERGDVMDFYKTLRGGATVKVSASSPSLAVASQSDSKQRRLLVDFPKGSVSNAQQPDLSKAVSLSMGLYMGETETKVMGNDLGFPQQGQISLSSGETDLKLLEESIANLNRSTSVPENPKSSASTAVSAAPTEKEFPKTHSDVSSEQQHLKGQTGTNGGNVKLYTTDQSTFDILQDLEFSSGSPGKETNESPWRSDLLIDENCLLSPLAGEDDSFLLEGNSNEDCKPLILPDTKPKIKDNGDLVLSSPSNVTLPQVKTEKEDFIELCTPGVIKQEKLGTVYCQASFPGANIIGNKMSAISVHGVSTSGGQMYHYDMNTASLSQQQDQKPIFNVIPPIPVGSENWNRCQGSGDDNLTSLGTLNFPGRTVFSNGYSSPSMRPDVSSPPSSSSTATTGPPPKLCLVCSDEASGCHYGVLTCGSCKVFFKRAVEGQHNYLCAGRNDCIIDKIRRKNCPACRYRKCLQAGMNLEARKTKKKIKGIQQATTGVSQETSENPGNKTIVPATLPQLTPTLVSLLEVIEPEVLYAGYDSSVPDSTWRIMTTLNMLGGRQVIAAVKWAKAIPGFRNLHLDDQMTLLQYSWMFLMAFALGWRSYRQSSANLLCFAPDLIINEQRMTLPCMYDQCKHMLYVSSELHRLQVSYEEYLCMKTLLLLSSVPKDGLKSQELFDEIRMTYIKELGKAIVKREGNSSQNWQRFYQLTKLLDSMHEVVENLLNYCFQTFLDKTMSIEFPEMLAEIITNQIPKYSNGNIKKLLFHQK
Assay: Luciferase reporter assay for GR (HeLa cells)
Type: cell-based
Conditions: 10 μM, 1 nM dexamethasone
Method: calculating volume (V= 0.5 × L × W2). Finally, the mice were sacrificed and the tumors were harvested for hematoxylin and eosin (H&E) staining.
Luciferase Reporter Assays for PR, GR, and MR
Addgene), 24 ng pGL4.36[luc2P MMTV Hygro] (Promega) and 5 ng Renilla using HG- […]
Addgene), 24 ng pGL4.36[luc2P MMTV Hygro] (Promega) and 5 ng Renilla using lip3000 transfection reagent (#L3000075, Thermofisher) for 24 h. For MR induction, HEK293T (1 × 10^4 cells/well) were transfected with 71 ng pCMV-MR gifted by Liu et al. 28, 24 ng of pGL4.36[luc2P MMTV Hygro] (Promega) and 5 ng Renilla using lip3000 transfec tion reagent for 24 h. For the antagonistic models, 10 nM /well progesterone for PC3 cells , 1 nM/well dexamethasone for HeLa, and 5 nM/well aldosterone for HEK293T cells were added to stimulate the cells. Meanwhile, each cell line was treated […]
For the agonistic models, the cells were directly treated with the compounds without any hormones. […]
hormones progesterone, dexamethasone, and aldosterone were considered as agonists for PR, GR, and MR, respectively. The luciferase activities were assessed using the Dual-Glo Luciferase system (#E1910, Promega).
Cell Cycle and Apoptosis for LNCaP cells
LNCaP were cultured in 6-well plate with 5× 10^5 cells/well, after incubated at 37 °C for […]
Cell cycle were determined after 48 h incubation by Cell Cycle Staining Kit (#CCS012, MULTI SCIENCES) using […]

Compound	GR antagonistic activity
CC(=O)Cc1nsc(NC(=O)c2cc(-c3cccc(C(F)(F)F)c3)oc2C)n1 [Compound M17-B15]	largely ineffective
CNC(=O)c1ccc(N2C(=S)N(c3ccc(C#N)c(C(F)(F)F)c3)C(=O)C2(C)C)cc1F [Enz, enzalutamide, reference compound]	largely ineffective

From article PMC10141604, “Small-Molecule Inhibition of Androgen Receptor Dimerization as a Strategy against Prostate Cancer” (ACS Central Science, 2023)
